According to publication PMC10827914 (Cellular and Molecular Life Sciences: CMLS, 2024):
Counter-ions that a name gives are not always drawn.

Assays:
[1] = tested on: recombinant human aminopeptidase B (APB); test: Enzyme activity assay of recombinant APB; assay type: biochemical; details: APB 0.2 µg/mL, 60 mM Tris–HCl pH 7.4, 100 mM KCl, 0.1 mM L-arginine-7-amido-4-methylcoumarin, 30 min, 37 °C
Procedure: The effect of peptides on the enzymatic activity of APA and APB was evaluated using the method described previously with some modifications. Briefly, threefold serial dilution of peptides (ranging from 0 to 10 or 100 µM) were incubated with either APA (0.2 µg/mL in 60 mM Tris–HCl pH 7.4, 50 mM CaCl2, 200 mM NaCl) or APB (0.2 µg/mL in 60 mM Tris–HCl pH 7.4, 100 mM KCl) and relative substrates at 0.1 mM (L-glutamic acid γ-(7-amido-4-methylcoumarin) or L-arginine-7-amido-4-methylcoumarin, respectively) in 96-well bottom clear black polystyrene microtiter plates (100 µl/well). The mixture was incubated for 30 min at 37 °C in a humid box, and the cleavage of the substrate was correlated with aminopeptidase enzymatic activities by measuring the fluorescence of methylcoumarin at λex 341 nm and λem 441 nm with a plate reader (Infinite 200 PRO, Tecan). IC50 was calculated as reported above for CD13 activity.
Fig. 2 G4 recognizes soluble forms of CD13, with higher affinity and selectivity than bestatin, and the membrane forms expressed on the surface of HUVEC cells. […] The mixtures were incubated for 30 min at 37 °C, and the cleavage of each substrate was monitored by measuring the fluorescence of methylcoumarin (λex 341 nm; λem 441 nm) using an Infinite 200 PRO plate reader (Tecan). […] After incubation for 60 min at 4 °C, the cells were washed and analyzed by flow cytometry. […]

[2] = biological target: T1, recombinant human CD13 (rCD13) (Homo sapiens, UniProt P15144); test: rCD13 enzyme inhibition assay, L-alanine 7-amido-4-methylcoumarin substrate; assay type: biochemical; details: rCD13 0.2 µg/mL, 60 mM Tris–HCl pH 7.4, 0.1 mM L-alanine-7-amido-4-methylcoumarin, 30 min, 37 °C
T1 construct: consisting of the CD13 extracellular domain expressed in HEK-293 cells; His-tag; purchased Sino Biological 10051-H08H; host or cells: HEK-293 cells
Procedure: (§1) Recombinant CD13 (rCD13) enzyme activity and inhibition assays were performed as described previously using L-alanine-p-nitroanilide or L-alanine 7-amido-4-methylcoumarin as substrates in 60 mM Tris–HCl, pH 7.4, or 60 mM potassium phosphate buffer, pH 7.4. Mixtures containing peptides at various concentrations, rCD13 (0.2 µg/mL), and L-alanine-p-nitroanilide substrate (0.5 mM) in 60 mM potassium phosphate buffer, pH 7.4 (total volume, 0.1 ml) were prepared and left to react for 30 min at 37 °C. The products were then analyzed using a plate reader (iMark Microplate Absorbance Reader; Bio-Rad). Alternatively, the assay was performed using 0.1 mM L-alanine 7-amido-4-methylcoumarin in 60 mM Tris–HCl, pH 7.4, as a substrate. Fluorescence intensity of methylcoumarin was measured on an Infinite 200 PRO plate reader (Tecan) using the following settings: excitation wavelength: 341 nm; emission wavelength: 441 nm; excitation bandwidth: 9; emission bandwidth: 20 nm; gain: 109 manual; number of flashes: 25; integration time: 20 µs; lag time: 0 µs; settle time: 0 ms.
(§2) The IC50 of each inhibitor was calculated by non-linear regression analysis of inhibition data using GraphPad Prism Software (GraphPad Software, Version 9.00, San Diego, CA). Steady-state enzyme kinetic analyses were performed using various concentrations of L-alanine-p-nitroanilide (0–1.5 mM) and VGCARRYCS peptide (0–900 nM). The initial velocities (Vo) were calculated from the slopes of the first 5 min of reaction. The enzyme inhibitory constant (Ki) was calculated using the competitive enzyme inhibition model in GraphPad Prism Software.
Fig. 2 G4 recognizes soluble forms of CD13, with higher affinity and selectivity than bestatin, and the membrane forms expressed on the surface of HUVEC cells. A Inhibitory effects of G4 and bestatin on the enzymatic activities of different aminopeptidases (rCD13, APA, and APB). Various amounts of G4 or bestatin were incubated with rCD13 (0.2 µg/mL in 60 mM Tris–HCl pH 7.4), APA (0.2 µg/mL in 60 mM Tris–HCl pH 7.4, 50 mM calcium chloride, 200 mM sodium chloride) or APB (0.2 µg/mL in 60 mM Tris–HCl pH 7.4, 100 mM potassium chloride) and the corresponding substrates at 0.1 mM (L-alanine-7-amido-4-methylcoumarin for rCD13, L-glutamic acid γ-(7-amido-4-methylcoumarin) for APA, and L-arginine-7-amido-4-methylcoumarin for APB). The mixtures were incubated for 30 min at 37 °C, and the cleavage of each substrate was monitored by measuring the fluorescence of methylcoumarin (λex 341 nm; λem 441 nm) using an Infinite 200 PRO plate reader (Tecan). Three independent experiments were performed for each enzyme. The results of one representative experiment for each enzyme are shown (mean ± SEM, duplicates). B Inhibitory effects of G4 and bestatin on soluble CD13 immunocaptured from human serum (sCD13) using microtiter plates coated with anti-CD13 mAb WM15. The microtiter plate was filled with a solution of mAb WM15 (5 μg/ml in DPBS) and incubated overnight at 4 °C. The plate was then washed with DPBS, blocked with 3% bovine serum albumin (BSA) in DPBS, and filled with human serum containing soluble CD13 (diluted 1:2 with DPBS containing 2% BSA). After washing with DPBS, mixtures of G4 or bestatin (0–100 µM in 60 mM Tris–HCl, pH 7.4) and L-alanine p-nitroanilide hydrochloride substrate (4.5 mM in 60 mM Tris–HCl, pH 7.4) were added and left to incubate at 37 °C for 2 h. Substrate cleavage by sCD13 dissociated from mAb WM15 was then monitored by measuring the absorbance at 405 nm in each well using a plate reader (Bio-Rad). The results of one experiment performed in triplicate are shown (mean ± SEM). C Effect of G4 on the binding of the anti-CD13 mAb WM15 to HUVEC. HUVEC were seeded at a density of 2 × 10^5 cells in 100 µL DPBS supplemented with 5% normal human serum (NHS) and incubated with a mixture of G4 peptide (0, 0.1, 1, and 10 µM) and mAb WM15 (0 or 0.13 nM) as indicated. […]

[3] = tested on: membrane CD13 expressed by HUVEC; test: Competitive binding of anti-CD13 mAb WM15 to HUVEC by flow cytometry; set-up: species or system human; details: Fig. 4C and 4D
Procedure: HUVEC were seeded in 96-well U-bottom polystyrene microtiter plates at a density of 2 × 10^5 cells in 100 µL DPBS supplemented with 5% normal human serum (NHS) and mixed with a mixture of peptide G4 ranging from 0 to 10 µM and mAb WM15 (0 or 0.13 nM). The chromogranin A429-439 peptide fragment (CgA429-439) was used instead of G4 as a control. After 1 h of incubation at 4 °C, the cells were washed and resuspended in 100 µL of DPBS containing 5% NHS and 1 µg/mL of FITC-labeled goat anti-mouse IgG secondary antibody. Cells were subsequently incubated for 1 h at 4 °C, washed, and analyzed by flow cytometry. All flow cytometry data were collected on a CytoFLEX S flow cytometer (Beckman Coulter) and analyzed using FlowJo software 10 (BD BioScience).
Fig. 2 G4 recognizes soluble forms of CD13, with higher affinity and selectivity than bestatin, and the membrane forms expressed on the surface of HUVEC cells. A Inhibitory effects of G4 and bestatin on the enzymatic activities of different aminopeptidases (rCD13, APA, and APB). Various amounts of G4 or bestatin were incubated with rCD13 (0.2 µg/mL in 60 mM Tris–HCl pH 7.4), APA (0.2 µg/mL in 60 mM Tris–HCl pH 7.4, 50 mM calcium chloride, 200 mM sodium chloride) or APB (0.2 µg/mL in 60 mM Tris–HCl pH 7.4, 100 mM potassium chloride) and the corresponding substrates at 0.1 mM (L-alanine-7-amido-4-methylcoumarin for rCD13, L-glutamic acid γ-(7-amido-4-methylcoumarin) for APA, and L-arginine-7-amido-4-methylcoumarin for APB). The mixtures were incubated for 30 min at 37 °C, and the cleavage of each substrate was monitored by measuring the fluorescence of methylcoumarin (λex 341 nm; λem 441 nm) using an Infinite 200 PRO plate reader (Tecan). Three independent experiments were performed for each enzyme. […] Substrate cleavage by sCD13 dissociated from mAb WM15 was then monitored by measuring the absorbance at 405 nm in each well using a plate reader (Bio-Rad). […] After incubation for 60 min at 4 °C, the cells were washed and analyzed by flow cytometry. Data are expressed as the percentage of counts vs. fluorescence intensity units […]

HUVEC = HUVEC cell adhesion assay on coated microtiter plates; assay type: cell-based, human; details: plates coated with 10 µg/mL, 4 × 10^5 HUVEC, 2.5 h, 37 °C, crystal violet, absorbance 540 nm
Procedure: The peptide VGCARRYCSGGSGGGSGK-biotin, with a biotin moiety linked to the ε-aminogroup of the Lys residue (ProteoGenix), was complexed with streptavidin (G4-streptavidin) or avidin (G4-avidin) by mixing it with a molar excess of streptavidin or avidin in DPBS (1:6 mol/mol), followed by incubation for 1 h at room temperature under mild stirring. To perform the cell adhesion assay, 96-well polyvinyl chloride microtiter plates were coated with G4-avidin or G4-streptavidin (10 µg/mL in DPBS, overnight, 4 °C). After blocking with 2% BSA in EBM-2 (45 min at room temperature), 4 × 10^5 HUVEC were seeded in Endothelial Cell Growth Basal Medium-2 (EBM-2, Cat. # 00190860, Lonza) and incubated for 2.5 h at 37 °C, 5% CO2. Unbound cells were removed by washing with EBM-2, and adherent cells were fixed with 3% paraformaldehyde and 2% sucrose in DPBS and stained with 0.5% crystal violet. The number of adherent cells was quantified by measuring the absorbance of the wells at 540 nm wavelength using a microplate reader.
Fig. 7 Adhesion of HUVEC cells to microtiter plates coated with G4-avidin or G4-streptavidin conjugates. Representative images of wells coated with 10 µg/mL of G4-avidin (A) or G4-streptavidin (B) complexes. Wells coated with avidin or streptavidin were used as negative controls. The absorbance of crystal violet-stained adherent cells is also shown. […]

[4] = biological target: T1, recombinant human CD13 (rCD13); test: rCD13 enzyme inhibition assay, L-alanine-p-nitroanilide substrate; assay type: biochemical; details: Fig. 4B and 4E, one experiment in duplicate
Procedure: as §1, §2
A) VGCGRRYCSN and CSGIGSSGGC (control) peptides, at various concentrations, were mixed with rCD13 (0.2 µg/mL), L-alanine-p-nitroanilide substrate (0.5 mM), in 60 mM potassium phosphate buffer, pH 7.4. The mixtures were left to react for 30 min at 37° C; then the absorbance at 405 nm of each mixture was measured using an ELISA plate reader (Bio-Rad). The IC50 of each inhibitor was calculated by non-linear regression analysis of inhibition data using the GraphPad Prism Software (GraphPad Software, Version 9.00, San Diego, CA). The result of one experiment performed in duplicate is shown (mean ± SEM).

T1 sequence (P15144 33-967 limits assumed): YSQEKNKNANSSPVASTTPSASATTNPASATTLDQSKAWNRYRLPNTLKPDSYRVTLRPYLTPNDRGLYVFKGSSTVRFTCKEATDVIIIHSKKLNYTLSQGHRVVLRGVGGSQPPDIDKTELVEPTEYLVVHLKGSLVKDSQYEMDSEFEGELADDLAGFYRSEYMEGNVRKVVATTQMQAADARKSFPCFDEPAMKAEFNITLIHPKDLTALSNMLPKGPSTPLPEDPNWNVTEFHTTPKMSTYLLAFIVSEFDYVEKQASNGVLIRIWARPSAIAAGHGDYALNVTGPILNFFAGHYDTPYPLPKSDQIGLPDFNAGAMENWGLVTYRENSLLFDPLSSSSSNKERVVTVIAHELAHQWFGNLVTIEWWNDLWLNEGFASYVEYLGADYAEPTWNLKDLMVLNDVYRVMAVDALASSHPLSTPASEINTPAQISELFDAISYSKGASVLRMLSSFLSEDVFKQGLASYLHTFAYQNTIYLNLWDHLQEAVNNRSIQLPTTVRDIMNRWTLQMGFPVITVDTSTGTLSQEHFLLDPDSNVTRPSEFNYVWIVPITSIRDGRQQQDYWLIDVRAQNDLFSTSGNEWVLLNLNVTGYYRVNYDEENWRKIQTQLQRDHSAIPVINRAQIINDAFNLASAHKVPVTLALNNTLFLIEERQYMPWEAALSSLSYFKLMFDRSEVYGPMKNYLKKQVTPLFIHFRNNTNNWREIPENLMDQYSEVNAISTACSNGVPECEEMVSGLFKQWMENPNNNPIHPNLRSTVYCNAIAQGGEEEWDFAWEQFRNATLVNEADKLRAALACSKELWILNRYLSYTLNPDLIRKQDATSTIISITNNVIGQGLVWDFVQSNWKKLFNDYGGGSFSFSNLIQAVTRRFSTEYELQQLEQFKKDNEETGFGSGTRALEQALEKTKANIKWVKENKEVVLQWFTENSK

Row | Inhibition of APB enzymatic activity (in words) [1] | Inhibition of rCD13 enzymatic activity (in words) [2] | Compound | Competition of mAb WM15 binding to HUVEC (in words) [3] | Endothelial cell adhesion to coated plates (in words) (HUVEC) | Inhibition of rCD13 enzymatic activity (in words) [4]
1 | inhibited both rCD13 and APB | inhibited both rCD13 and APB | CC(C)C[C@H](NC(=O)[C@@H](O)[C@H](N)Cc1ccccc1)C(=O)O [bestatin, Bestatin-hydrochloride] |  |  | 
2 |  |  | VGCARRYCSGGSGGGSGK-biotin [G4-avidin, …-biotin complexed with avidin] | competed the binding of mAb WM15 to endothelial cells | promoted endothelial cell adhesion | could not inhibit the enzymatic activity of recombinant soluble CD13
